Data taken from patent US20260083865A1, “PROSTATE SPECIFIC MEMBRANE ANTIGEN (PSMA) LIGANDS AND USE THEREOF” (priority 2022, published 2026).
Where two headings read alike, the source gives them in different places. One block for each molecule: values may come before it. Numbered stars: 1 amine (or outer) side, 2 acyl side, 3 side chain; on linkers, the order of the positions; unused ones are H or OH. Bridge positions count the residues as written; N and C are the ends. Square brackets hold non-standard residues; d marks the D form. Side chains are listed from the residue outwards. Peptide text beside a SMILES is read from it. * marks the point of attachment. DOTA = O=C(O)CN1CCN(CC(=O)O)CCN(CC(=O)*)CCN(CC(=O)O)CC1; Pro(trans-4-F) = O=C(O)[C@@H]1C[C@@H](F)CN1; Phe(3-Cl) = N[C@@H](Cc1cccc(Cl)c1)C(=O)O; Phe(4-Cl) = N[C@@H](Cc1ccc(Cl)cc1)C(=O)O; Phe(3-F) = N[C@@H](Cc1cccc(F)c1)C(=O)O; X1 = O=C(CC1CCN([*:1])CC1)[*:2]; Cit = NC(=O)NCCC[C@H](N)C(=O)O; Tle = CC(C)(C)[C@H](N)C(=O)O; Pyridin(2-yl) = c1ccc(*)nc1; Orn = NCCC[C@H](N)C(=O)O; Aib = CC(C)(N)C(=O)O; CO = O=C([*:1])[*:2]; Ahx = NCCCCCC(=O)O; GABA = NCCCC(=O)O; Sar = CNCC(=O)O; NHBu = CCCCN*

What was measured:
[1] = molecular target: T1, PSMA-expressing C4-2 cells (Homo sapiens, UniProt Q04609); assay: FACS binding assay (competition with 50 nM PSM-0183); conditions: read-out: pIC50 [C4-2] CAT (converted)
T1 construct: PSMA-expressing C4-2 cells (ATCC, Cat. No. CRL-3314) were cultured in RPMI-1640; host or cells: C4-2 cells
Outline: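 C4-2 cells were incubated 1 h at 4 °C with 50 nM AF488-labelled peptide PSM-0183 plus increasing test compound concentrations, then washed twice in ice-cold buffer. Median fluorescence in the AF488 channel was read by flow cytometry. IC50/pIC50 was derived by 4PL fitting of MFI versus concentration.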

[2] = molecular target: T2, Fc-fusion protein of human PSMA (hPSMA-Fc) (Homo sapiens, UniProt Q04609); assay: Surface plasmon resonance assay (Biacore T200, single cycle kinetic); format: binding; conditions: read-out: pKD CAT (converted)
T2 construct: purchased Acro Biosystems PSA-H5264
Outline: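 hPSMA-Fc was captured (~1000 RU) on an Fc-binding-peptide CM5 chip, and compounds were run in single cycle kinetic mode at 25° C in HBST with 0.1% DMSO. Double-blank-corrected sensorgrams were fitted to a 1:1 Langmuir model to give KD, reported as pKD.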

[3] = pIC50 category of FACS binding, C4-2 cells
[4] = pKD category for PSMA SPR activity assay, hPSMA-Fc, 25° C.
[5] = FACS binding, PSMA-expressing C4-2 cells, pIC50 category
[6] = PSMA SPR assay, hPSMA-Fc, 25° C., pKD category
[7] = FACS binding, C4-2 cells, category

T2 sequence (Q04609 44-750 limits assumed): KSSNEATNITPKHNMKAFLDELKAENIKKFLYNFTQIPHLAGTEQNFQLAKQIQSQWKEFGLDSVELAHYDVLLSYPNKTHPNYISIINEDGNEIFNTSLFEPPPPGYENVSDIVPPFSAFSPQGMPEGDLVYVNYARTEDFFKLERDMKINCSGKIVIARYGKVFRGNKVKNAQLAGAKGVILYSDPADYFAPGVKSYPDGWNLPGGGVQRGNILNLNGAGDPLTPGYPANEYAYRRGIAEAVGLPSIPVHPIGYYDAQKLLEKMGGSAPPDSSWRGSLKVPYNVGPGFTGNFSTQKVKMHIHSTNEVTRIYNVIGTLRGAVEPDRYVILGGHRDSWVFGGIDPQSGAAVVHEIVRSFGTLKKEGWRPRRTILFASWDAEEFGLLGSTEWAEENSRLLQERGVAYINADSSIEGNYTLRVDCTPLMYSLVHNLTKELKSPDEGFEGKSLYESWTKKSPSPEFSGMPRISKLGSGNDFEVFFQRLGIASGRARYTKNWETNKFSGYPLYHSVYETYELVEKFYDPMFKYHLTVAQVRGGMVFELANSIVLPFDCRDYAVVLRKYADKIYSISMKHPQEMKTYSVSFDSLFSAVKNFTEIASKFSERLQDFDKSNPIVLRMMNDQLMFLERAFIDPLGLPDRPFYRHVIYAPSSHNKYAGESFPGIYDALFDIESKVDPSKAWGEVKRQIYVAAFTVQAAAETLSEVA
T1 sequence (Q04609 whole entry): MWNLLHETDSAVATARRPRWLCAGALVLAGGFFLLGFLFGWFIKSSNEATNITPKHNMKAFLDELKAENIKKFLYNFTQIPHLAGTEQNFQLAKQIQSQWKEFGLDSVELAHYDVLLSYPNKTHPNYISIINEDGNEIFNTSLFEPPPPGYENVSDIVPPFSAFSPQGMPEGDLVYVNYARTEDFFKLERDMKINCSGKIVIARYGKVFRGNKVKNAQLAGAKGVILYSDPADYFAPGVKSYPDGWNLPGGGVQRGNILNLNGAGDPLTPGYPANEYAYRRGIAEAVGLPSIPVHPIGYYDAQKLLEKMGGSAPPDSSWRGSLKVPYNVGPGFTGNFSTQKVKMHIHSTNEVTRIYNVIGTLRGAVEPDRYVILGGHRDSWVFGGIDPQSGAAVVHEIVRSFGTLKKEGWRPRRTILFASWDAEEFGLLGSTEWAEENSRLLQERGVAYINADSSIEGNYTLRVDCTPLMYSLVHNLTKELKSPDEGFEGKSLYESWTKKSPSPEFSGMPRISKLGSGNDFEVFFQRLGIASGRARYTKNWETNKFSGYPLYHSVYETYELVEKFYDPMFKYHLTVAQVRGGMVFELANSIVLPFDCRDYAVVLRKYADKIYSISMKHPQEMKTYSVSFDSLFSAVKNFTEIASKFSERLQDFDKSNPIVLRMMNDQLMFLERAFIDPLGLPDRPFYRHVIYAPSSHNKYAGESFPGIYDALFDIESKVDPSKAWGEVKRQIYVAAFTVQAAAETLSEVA

IC50 [1, 3]: < 200 nM | Kd [2, 4]: < 12.6 nM
Compound: CC(=O)N[C@H](C(=O)NC(C)(C)C(=O)N[C@@H](Cc1cccc(F)c1)C(=O)N[C@H]1CSSC[C@@H](C(=O)N[C@H](C(=O)N[C@H](C(N)=O)[C@@H](C)O)C(C)(C)C)NC(=O)[C@H](CC(N)=O)NC(=O)C(C)(C)NC(=O)[C@H](CCCNC(=N)N)NC(=O)[C@H](CCCCN)NC1=O)[C@@H](C)O [PSM-0551, Ac-Thr-Aib-Mff-[Cys-Lys-Arg-Aib-Asn-Cys]-Tle-Thr-NH2] (Ac-T[Aib][Phe(3-F)]CKR[Aib]NC[Tle]T-NH2; disulfide 4-9)

IC50 [1, 5]: < 200 nM | Kd [2, 6]: < 12.6 nM
Compound: CC(=O)N[C@H](C(=O)NC(C)(C)C(=O)N[C@@H](Cc1ccccc1)C(=O)N[C@H]1CSSC[C@@H](C(=O)N[C@H](C(=O)NCCCC(N)=O)C(C)(C)C)NC(=O)[C@H](CC(N)=O)NC(=O)C(C)(C)NC(=O)[C@H](CCCNC(=N)N)NC(=O)[C@H](CCCCN)NC1=O)[C@@H](C)O [PSM-0297, Ac-Thr-Aib-Pho-[Cys-Lys-Arg-Aib-Asn-Cys]-Tle-Gab-NH2] (Ac-T[Aib]FCKR[Aib]NC[Tle][GABA]-NH2; disulfide 4-9)

IC50 [1, 3]: < 200 nM | Kd [2, 4]: < 12.6 nM
Compound: CC(=O)N[C@H](C(=O)NC(C)(C)C(=O)N[C@@H](Cc1ccccc1)C(=O)N[C@H]1CSSC[C@@H](C(=O)N[C@H](C(=O)N[C@H](C(=O)N[C@@H](CC(=O)O)C(N)=O)[C@@H](C)O)C(C)(C)C)NC(=O)[C@H](CC(N)=O)NC(=O)[C@@H]2C[C@@H](F)CN2C(=O)[C@H](CCCNC(=N)N)NC(=O)[C@H](CCCCN)NC1=O)[C@@H](C)O [PSM-0392, Ac-Thr-Aib-Phe-[Cys-Lys-Arg-4Tfp-Asn-Cys]-Tle-Thr-Asp-NH2] (Ac-T[Aib]FCKR[Pro(trans-4-F)]NC[Tle]TD-NH2; disulfide 4-9)

IC50 [1, 7]: < 200 nM | Kd ([2]; PSMA SPR assay, category): < 12.6 nM
Compound: CC(=O)N[C@H](C(=O)NC(C)(C)C(=O)N[C@@H](Cc1ccccc1)C(=O)N[C@H]1CSSC[C@@H](C(=O)N[C@H](C(=O)N[C@H](C(N)=O)[C@@H](C)O)C(C)(C)C)NC(=O)[C@H](CC(N)=O)NC(=O)[C@H](CCCCNC(=O)CCCCCNC(=O)CN2CCN(CC(=O)O)CCN(CC(=O)O)CCN(CC(=O)O)CC2)NC(=O)[C@H](CCCNC(N)=O)NC(=O)[C@H](CCCCN)NC1=O)[C@@H](C)O [PSM-0582, Ac-Thr-Aib-Phe-[Cys-Lys-Arg-Lys(DOTA-Ahx)-Asn-Cys]-Tle-Thr-NH2] (Ac-T[Aib]FCK[Cit]K([Ahx-DOTA])NC[Tle]T-NH2; disulfide 4-9)

IC50 [1, 5]: > 3160 nM | Kd [2, 6]: > 501 nM
Compound: C[C@@H](O)[C@H](NC(=O)[C@@H](NC(=O)[C@@H]1CSSC[C@H](NC(=O)[C@H](Cc2ccc(Cl)cc2)NC(=O)[C@@H](CCC(=O)O)NC(=O)[C@@H](NC(=O)CC2CCN(C(=O)CN3CCN(CC(=O)O)CCN(CC(=O)O)CCN(CC(=O)O)CC3)CC2)[C@@H](C)O)C(=O)N[C@@H](CCCCN)C(=O)N[C@@H](CCCNC(=N)N)C(=O)NC(C)(C)C(=O)N[C@@H](CC(N)=O)C(=O)N1)C(C)(C)C)C(N)=O [PSM-0343, DOTA-Cmp-Thr-glu-Pcf-[Cys-Lys-Arg-Aib-Asn-Cys]-Tle-Thr-NH2] ({DOTA}-[X1]T[dE][Phe(4-Cl)]CKR[Aib]NC[Tle]T-NH2; disulfide 5-10)

IC50 [1, 7]: 200 to 1260 nM | Kd ([2]; PSMA SPR assay, category): 12.6 to 126 nM
Compound: CCCCNC(=O)N[C@H](C(=O)NC(C)(C)C(=O)N[C@@H](Cc1cccc(Cl)c1)C(=O)N[C@H]1CSSC[C@@H](C(=O)N[C@H](C(=O)N[C@H](C(=O)N2CCC(CC(=O)N[C@H](CCCCNC(=O)CN3CCN(CC(=O)O)CCN(CC(=O)O)CCN(CC(=O)O)CC3)C(N)=O)CC2)[C@@H](C)O)C(C)(C)C)NC(=O)[C@H](CC(N)=O)NC(=O)C(C)(C)NC(=O)[C@H](CCCNc2ccccn2)NC(=O)[C@H](CCCCN)NC1=O)[C@@H](C)O [PSM-0571, nBuCAyl-Thr-Aib-Mcf-[Cys-Lys-Opy-Aib-Asn-Cys]-Tle-Thr-Cmp-lys(DOTA)-NH2] ({NHBu-CO}-T[Aib][Phe(3-Cl)]CK[Orn](Pyridin(2-yl))[Aib]NC[Tle]T[X1][dK](DOTA)-NH2; disulfide 4-9)

IC50 [1, 3]: 200 to 1260 nM | Kd [2, 4]: 126 to 501 nM
Compound: CC(=O)N[C@H](C(=O)N(C)CC(=O)N[C@@H](Cc1ccccc1)C(=O)N[C@H]1CSSC[C@@H](C(=O)N[C@H](C(=O)N[C@H](C(N)=O)[C@@H](C)O)C(C)(C)C)NC(=O)[C@H](CC(N)=O)NC(=O)C(C)(C)NC(=O)[C@H](CCCNC(=N)N)NC(=O)[C@H](CCCCN)NC1=O)[C@@H](C)O [PSM-0408, Ac-Thr-Nmg-Phe-[Cys-Lys-Arg-Aib-Asn-Cys]-Tle-Thr-NH2] (Ac-T[Sar]FCKR[Aib]NC[Tle]T-NH2; disulfide 4-9)
